Test results from patent US20250145566A1, “PHENETHYLAMINE DERIVATIVES, COMPOSITIONS, AND METHODS OF USE” (Cybin IRL Limited, priority 2022, published 2025).

What was measured:
[1] = Rat liver microsomes (RLM) in vitro metabolism; format: in vitro ADME; details: Sprague-Dawley, pH 7.4; rat liver microsomes, test compound 1 μM; * = apparent NADPH independent reaction; read-out: RLM t1/2
Experimental: (§1) Rat Liver Microsomes (RLM). Male Sprague-Dawley rat liver microsomes were purchased from XenoTech. The reaction mixture, minus NADPH, was prepared as described in Table 10. The test compound was added into the reaction mixture at a final concentration of 1 μM. The control compound, testosterone, was run simultaneously with the test compound in a separate reaction. The reaction mixture (without cofactor) was equilibrated in a shaking water bath at 37° C. for 5 minutes. The reaction was initiated by the addition of the cofactor, and the mixture was incubated in a shaking water bath at 37° C. Aliquots (150 μL) were withdrawn at 0, 5, 10, 20, 30, 60, and for some assays at 120 minutes. Test compound and testosterone samples were immediately combined with 150 μL of ice-cold acetonitrile (ACN) containing 0.1% formic acid and internal standard to terminate the reaction. The samples were then mixed and centrifuged to precipitate proteins. All samples were assayed by LC-MS/MS using electrospray ionization. The peak area response ratio (PARR) of analyte to internal standard at each time point was compared to the PARR at time 0 to determine the percent remaining at each time point. Half-lives were calculated using GraphPad software, fitting to a single-phase exponential decay equation.
(§2) In a different series of reactions using RLM, a 10 mM stock solution of the test compound was prepared in DMSO. From this stock solution, an intermediate stock solution of 1 mM was prepared by diluting the compound in DMSO and from this intermediate stock solution, a working solution of 0.30 mM was prepared by diluting the compound in ACN:Water (50:50) as a cocktail of two compounds (i.e., 30 μL the non-deuterated and the deuterated compound in 40 μL diluent in 100 μL total volume). Following this, a master mix of rat liver microsomes (final concentration 0.5 mg/ml, Xenotech Cat #R1000; Lot #1610290) and 0.1 M potassium phosphate buffer was prepared and pre-incubated for 5 min at 37° C. The test compound mixture was then added to achieve a final test article concentration of 1 μM (for each analog if co-dosed; 0.2% DMSO); verapamil was used as a positive control. Subsequently, 10 mM NADPH prepared in 0.1 M potassium phosphate buffer was added (final concentration 1 mM) to initiate the reaction and samples were incubated at 37° C. for the desired time points (0, 5, 15, 30, 45, 60 min). At each time point, 40 μL of the samples were withdrawn and reactions were stopped using 200 μL chilled ACN containing 0.1% formic acid and internal standard carbamazepine (10 ng/mL). The samples were centrifuged, and the supernatant was analyzed by LC-MS/MS. The percent compound remaining at each time point was calculated with respect to that of the 0 min sample. The data were then analyzed to calculate half-life. Blank samples were prepared using DMSO (without the test compound).

Rat Liver Microsomes = assay: Rat liver microsomes (RLM) in vitro metabolism; format: in vitro ADME; details: result in words
Experimental: as §1, §2

| SMILES | half-life at 1 µM [1] [min] | disappearance in RLM, NADPH dependence (Rat Liver Microsomes) |
| --- | --- | --- |
| NCCc1ccc2c(c1)OCS2 [II-14, 2-(benzo[d][1,3]oxathiol-6-yl)ethan-1-amine] | < 5 | NADPH-independent |
| CC(N)Cc1ccc2c(c1)OCS2 (stereo not shown) [II-16, 1-(benzo[d][1,3]oxathiol-6-yl)propan-2-amine] | 11.7 | NADPH-independent |
